Reference: patent US11718622B2, “Heterocyclic adenosine receptor antagonists” (Exelixis, Inc., priority 2020, dated 2023)

Experiments:
[1] = biological target: Adenosine A2B (ADORA2B) receptor (Homo sapiens (Human), UniProt P29275); experiment: ADORA2B Receptor Binding Assay; conditions: radioligand binding, membrane stock
In short: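 Radioligand competition binding on human A2B receptor membranes, 1 h at room temperature, then filtration through BSA-presoaked GF/C filters and ³H counting by scintillation. Inhibition expressed as % of high control after background subtraction.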

[2] = biological target: Adenosine A2a (ADORA2A) receptor (Homo sapiens (Human), UniProt P29274); experiment: ADORA2A Receptor Binding Assay; conditions: radioligand binding, membrane stock
In short: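 Test compounds incubated with A2a receptor membranes and a ³H-labelled radioligand for 2 hours at room temperature, then filtered through PEI-presoaked GF/C plates and washed. Filter-bound ³H counted by scintillation; % inhibition calculated from background-subtracted signal relative to high control.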

Sequence of Adenosine A2a (ADORA2A) receptor (P29274 whole entry): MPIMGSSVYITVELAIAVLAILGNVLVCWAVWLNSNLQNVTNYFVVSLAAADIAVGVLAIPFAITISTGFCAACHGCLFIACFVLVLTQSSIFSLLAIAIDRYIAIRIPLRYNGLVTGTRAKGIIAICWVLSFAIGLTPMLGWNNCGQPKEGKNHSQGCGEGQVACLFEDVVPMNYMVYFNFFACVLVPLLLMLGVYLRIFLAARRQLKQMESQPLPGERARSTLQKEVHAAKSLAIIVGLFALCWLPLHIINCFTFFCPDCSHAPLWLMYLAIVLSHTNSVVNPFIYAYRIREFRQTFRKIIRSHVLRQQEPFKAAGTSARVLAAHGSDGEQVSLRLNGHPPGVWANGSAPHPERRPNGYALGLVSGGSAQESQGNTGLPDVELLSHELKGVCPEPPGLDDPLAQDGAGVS
Sequence of Adenosine A2B (ADORA2B) receptor (P29275 whole entry): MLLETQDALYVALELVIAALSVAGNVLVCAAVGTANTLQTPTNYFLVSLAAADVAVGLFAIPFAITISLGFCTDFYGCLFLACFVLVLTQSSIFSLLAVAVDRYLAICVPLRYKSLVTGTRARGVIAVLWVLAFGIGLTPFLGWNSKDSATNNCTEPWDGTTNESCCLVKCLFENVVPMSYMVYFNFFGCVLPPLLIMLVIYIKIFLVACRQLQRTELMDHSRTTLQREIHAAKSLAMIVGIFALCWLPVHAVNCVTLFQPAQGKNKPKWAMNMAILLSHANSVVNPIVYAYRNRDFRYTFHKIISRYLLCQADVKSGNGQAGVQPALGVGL

With `Cc1nc2c3nc(C(F)(F)F)[nH]c3nc(-c3ccco3)n2n1` [Compound 165, 5-(furan-2-yl)-8-methyl-2-(trifluoromethyl)-3H-[1,2,4]triazolo[5,1-f]purine] the IC50 [1] was greater than 1000 nM and the IC50 [2] was greater than 1000 nM.
Work on `Cc1ccc(-c2nc(N)cn3ncnc23)o1` [Compound 166, 8-(5-methylfuran-2-yl)-[1,2,4]triazolo[1,5-a]pyrazin-6-amine] yielded an IC50 [1] of 100 to 1000 nM and an IC50 [2] of 100 to 1000 nM.
In the case of `Cc1ccc(-c2nc(NC(=O)C3CC3)cn3ncnc23)o1` [Compound 167, N-[8-(5-methylfuran-2-yl)-[1,2,4]triazolo[1,5-a]pyrazin-6-yl]cyclopropanecarboxamide], the IC50 [1] is reported as less than 10 nM and the IC50 [2] is reported as less than 10 nM.
`Cc1nc2c(-c3ccc(C)o3)nc(N)cn2n1` [Compound 168, 2-methyl-8-(5-methylfuran-2-yl)-[1,2,4]triazolo[1,5-a]pyrazin-6-amine] was tested, and the IC50 [1] was 10 to 100 nM and the IC50 [2] was less than 10 nM.
`Cc1nc2c(-c3ccc(C)o3)nc(NC(=O)C3CC3)cn2n1` [Compound 169, N-[2-methyl-8-(5-methlfuran-2-yl)-[1,2,4]triazolo[1,5-a]pyrazin-6-yl]cyclopropanecarboxamide] gave an IC50 [1] of less than 10 nM and an IC50 [2] of less than 10 nM.
With `Cc1nc2c(-c3ccc(F)cc3)nc(N)c(Cl)n2n1` [Compound 170, 5-chloro-8-(4-fluorophenyl)-2-methyl-[1,2,4]triazolo[1,5-a]pyrazin-6-amine] the IC50 [1] was 10 to 100 nM and the IC50 [2] was less than 10 nM.
Compound `Cc1nc2c(-c3ccc(F)cc3)nc(N)c(Br)n2n1` [Compound 171, 5-bromo-8-(4-fluorophenyl)-2-methyl-[1,2,4]triazolo[1,5-a]pyrazin-6-amine] has an IC50 [1] of 10 to 100 nM and an IC50 [2] of less than 10 nM.
For `Cc1nc2c(-c3ccccc3)nc(N)c(Br)n2n1` [Compound 172, 5-bromo-2-methyl-8-phenyl-[1,2,4]triazolo[1,5-a]pyrazin-6-amine], the IC50 [1] was less than 10 nM and the IC50 [2] was less than 10 nM.
Work on `Cc1ccc(-c2nc(NC(=O)C3CC3)cn3nc(C(C)C)nc23)o1` [Compound 173, N-[8-(5-methylfuran-2-yl)-2-propan-2-yl-[1,2,4]triazolo[1,5-a]pyrazin-6-yl]cyclopropanecarboxamide] yielded an IC50 [1] of less than 10 nM and an IC50 [2] of less than 10 nM.
`CC(=O)Nc1cn2nc(C)nc2c(-c2ccc(C)o2)n1` [Compound 174, N-[2-methyl-8-(5-methylfuran-2-yl)-[1,2,4]triazolo[1,5-a]pyrazin-6-yl]acetamide] showed an IC50 [1] of less than 10 nM and an IC50 [2] of less than 10 nM.
`Cc1nc2c(-c3ccc(C)o3)nc(N)c(Cl)n2n1` [Compound 175, 5-chloro-2-methyl-8-(5-methylfuran-2-yl)-[1,2,4]triazolo[1,5-a]pyrazin-6-amine] was tested, and the IC50 [1] was less than 10 nM and the IC50 [2] was less than 10 nM.
`Cc1nc2c(-c3ccccc3)nc(N)c(Cl)n2n1` [Compound 176, 5-chloro-2-methyl-8-phenyl-[1,2,4]triazolo[1,5-a]pyrazin-6-amine] showed an IC50 [1] of less than 10 nM and an IC50 [2] of less than 10 nM.
`CC(C)c1nc2c(-c3ccccc3)nc(N)c(Cl)n2n1` [Compound 177, 5-chloro-8-phenyl-2-propan-2-yl-[1,2,4]triazolo[1,5-a]pyrazin-6-amine] gave an IC50 [1] of less than 10 nM and an IC50 [2] of less than 10 nM.
`Nc1nc(-c2ccccc2)c2nc(C(F)(F)F)nn2c1Cl` [Compound 178, 5-chloro-8-phenyl-2-(trifluoromethyl)-[1,2,4]triazolo[1,5-a]pyrazin-6-amine] showed an IC50 [1] of less than 10 nM and an IC50 [2] of less than 10 nM.
Work on `CC(=O)Nc1cn2nc(C)nc2c(-c2ccco2)n1` [Compound 179, N-[8-(furan-2-yl)-2-methyl-[1,2,4]triazolo[1,5-a]pyrazin-6-yl]acetamide] yielded an IC50 [1] of less than 10 nM and an IC50 [2] of less than 10 nM.
`Cc1nc2c(-c3ccco3)nc(NC(=O)C3CC3)cn2n1` [Compound 180, N-[8-(furan-2-yl)-2-methyl-[1,2,4]triazolo[1,5-a]pyrazin-6-yl]cyclopropanecarboxamide] showed an IC50 [1] of less than 10 nM and an IC50 [2] of less than 10 nM.
Work on `CC(C)c1nc2c(-c3ccco3)nc(NC(=O)C3CC3)cn2n1` [Compound 181, N-[8-(furan-2-yl)-2-propan-2-yl-[1,2,4]triazolo[1,5-a]pyrazin-6-yl]cyclopropanecarboxamide] yielded an IC50 [1] of less than 10 nM and an IC50 [2] of less than 10 nM.
`Cc1nc2c(-c3ccccc3C)nc(N)c(Cl)n2n1` [Compound 182, 5-chloro-2-methyl-8-(2-methylphenyl)-[1,2,4]triazolo[1,5-a]pyrazin-6-amine] showed an IC50 [1] of 100 to 1000 nM and an IC50 [2] of 100 to 1000 nM.
`Cc1cccc(-c2nc(N)c(Cl)n3nc(C)nc23)c1` [Compound 183, 5-chloro-2-methyl-8-(3-methylphenyl)-[1,2,4]triazolo[1,5-a]pyrazin-6-amine] was tested, and the IC50 [1] was 10 to 100 nM and the IC50 [2] was less than 10 nM.
With `Cc1ccc(-c2nc(N)c(Cl)n3nc(C)nc23)cc1` [Compound 184, 5-chloro-2-methyl-8-(4-methylphenyl)-[1,2,4]triazolo[1,5-a]pyrazin-6-amine] the IC50 [1] was less than 10 nM and the IC50 [2] was less than 10 nM.
`Cc1ccc(-c2nc(NC(=O)C3CC3)cn3nc(C(F)F)nc23)o1` [Compound 185, N-[2-(difluoromethyl)-8-(5-methylfuran-2-yl)-[1,2,4]triazolo[1,5-a]pyrazin-6-yl]cyclopropanecarboxamide] gave an IC50 [1] of less than 10 nM and an IC50 [2] of less than 10 nM.
For `Cc1ccc(-c2nc(NC(=O)C3CC3)cn3nc(N)nc23)o1` [Compound 187, N-[2-amino-8-(5-methylfuran-2-yl)-[1,2,4]triazolo[1,5-a]pyrazin-6-yl]cyclopropanecarboxamide], the IC50 [1] was less than 10 nM and the IC50 [2] was less than 10 nM.
`Cc1ccc(-c2nc(NC(=O)C3CC3)cn3nc(Br)nc23)o1` [Compound 188, N-[2-bromo-8-(5-methylfuran-2-yl)-[1,2,4]triazolo[1,5-a]pyrazin-6-yl]cyclopropanecarboxamide] showed an IC50 [1] of less than 10 nM and an IC50 [2] of less than 10 nM.
In the case of `Cc1ccc(-c2nc(NC(=O)C3CC3)cn3nc(C(F)(F)F)nc23)o1` [Compound 189, N-[8-(5-methylfuran-2-yl)-2-(trifluoromethyl)-[1,2,4]triazolo[1,5-a]pyrazin-6-yl]cyclopropanecarboxamide], the IC50 [1] is reported as less than 10 nM and the IC50 [2] is reported as less than 10 nM.
`Cc1ccc(-c2nc(NC(=O)C3CC3)cn3nc(CF)nc23)o1` [Compound 190, N-[2-(fluoromethyl)-8-(5-methylfuran-2-yl)-[1,2,4]triazolo[1,5-a]pyrazin-6-yl]cyclopropanecarboxamide] gave an IC50 [1] of less than 10 nM and an IC50 [2] of less than 10 nM.
With `Cc1ccc(-c2nc(NC(=O)C3CC3)cn3ccnc23)o1` [Compound 192, N-[8-(5-methylfuran-2-yl)imidazo[1,2-a]pyrazin-6-yl]cyclopropanecarboxamide] the IC50 [1] was 10 to 100 nM and the IC50 [2] was 10 to 100 nM.
`Cc1ccc(-c2nc(N)cn3cc(C(F)(F)F)nc23)o1` [Compound 195, 8-(5-methylfuran-2-yl)-2-(trifluoromethyl)imidazo[1,2-a]pyrazin-6-amine] was tested, and the IC50 [1] was 100 to 1000 nM and the IC50 [2] was 10 to 100 nM.
`Cc1ccc(-c2nc(NC(=O)C3CC3)cn3c(C)cnc23)o1` [Compound 196, N-[3-methyl-8-(5-methylfuran-2-yl)imidazo[1,2-a]pyrazin-6-yl]cyclopropanecarboxamide] gave an IC50 [1] of 10 to 100 nM and an IC50 [2] of 10 to 100 nM.
For `Cc1ccc(-c2nc(NC(=O)C3CC3)cn3cc(C(F)(F)F)nc23)o1` [Compound 197, N-[8-(5-methylfuran-2-yl)-2-(trifluoromethyl)imidazo[1,2-a]pyrazin-6-yl]cyclopropanecarboxamide], the IC50 [1] was less than 10 nM and the IC50 [2] was less than 10 nM.
In the case of `Cc1ccc(-c2nc(N)cn3c(C)cnc23)o1` [Compound 198, 3-methyl-8-(5-methylfuran-2-yl)imidazo[1,2-a]pyrazin-6-amine], the IC50 [1] is reported as greater than 1000 nM and the IC50 [2] is reported as greater than 1000 nM.
For `Cc1cn2cc(NC(=O)C3CC3)nc(-c3ccc(C)o3)c2n1` [Compound 199, N-[2-methyl-8-(5-methylfuran-2-yl)imidazo[1,2-a]pyrazin-6-yl]cyclopropanecarboxamide], the IC50 [1] was 10 to 100 nM and the IC50 [2] was less than 10 nM.
With `Cc1cn2cc(N)nc(-c3ccc(C)o3)c2n1` [Compound 200, 2-methyl-8-(5-methylfuran-2-yl)imidazo[1,2-a]pyrazin-6-amine] the IC50 [1] was 100 to 1000 nM and the IC50 [2] was 100 to 1000 nM.
With `Cc1cn2c(Cl)c(N)nc(-c3ccccc3)c2n1` [Compound 201, 5-chloro-2-methyl-8-phenylimidazo[1,2-a]pyrazin-6-amine] the IC50 [1] was 100 to 1000 nM and the IC50 [2] was 10 to 100 nM.
`Cc1cn2c(Cl)c(N)nc(-c3ccc(F)cc3)c2n1` [Compound 202, 5-chloro-8-(4-fluorophenyl)-2-methylimidazo[1,2-a]pyrazin-6-amine] showed an IC50 [1] of 100 to 1000 nM and an IC50 [2] of 100 to 1000 nM.
Work on `Cc1cn2c(Br)c(N)nc(-c3ccccc3)c2n1` [Compound 203, 5-bromo-2-methyl-8-phenylimidazo[1,2-a]pyrazin-6-amine] yielded an IC50 [1] of 100 to 1000 nM and an IC50 [2] of 100 to 1000 nM.
In the case of `Nc1nc(-c2ccccc2)c2nc(C(F)(F)F)cn2c1Cl` [Compound 204, 5-chloro-8-phenyl-2-(trifluoromethyl)imidazo[1,2-a]pyrazin-6-amine], the IC50 [1] is reported as 10 to 100 nM and the IC50 [2] is reported as 10 to 100 nM.
In the case of `CC(=O)Nc1cn2cc(C)nc2c(-c2ccc(C)o2)n1` [Compound 205, N-[2-methyl-8-(5-methylfuran-2-yl)imidazo[1,2-a]pyrazin-6-yl]acetamide], the IC50 [1] is reported as 10 to 100 nM and the IC50 [2] is reported as less than 10 nM.
Compound `Cc1cn2c(Br)c(N)nc(-c3ccc(F)cc3)c2n1` [Compound 206, 5-bromo-8-(4-fluorophenyl)-2-methylimidazo[1,2-a]pyrazin-6-amine] has an IC50 [1] of 100 to 1000 nM and an IC50 [2] of 100 to 1000 nM.
`Cc1cccc(-c2nc(N)c(Cl)n3cc(C)nc23)c1` [Compound 207, 5-chloro-2-methyl-8-(3-methylphenyl)imidazo[1,2-a]pyrazin-6-amine] was tested, and the IC50 [1] was 100 to 1000 nM and the IC50 [2] was 100 to 1000 nM.
`Cc1cn2cc(NC(=O)C3CC3)nc(-c3ccco3)c2n1` [Compound 208, N-[8-(furan-2-yl)-2-methylimidazo[1,2-a]pyrazin-6-yl]cyclopropanecarboxamide] showed an IC50 [1] of 10 to 100 nM and an IC50 [2] of less than 10 nM.
